The target in one experiment is T1, ETB receptors (Homo sapiens, UniProt P24530).
T1 construct: host or cells: man (in vivo)
T1 sequence (P24530 27-442): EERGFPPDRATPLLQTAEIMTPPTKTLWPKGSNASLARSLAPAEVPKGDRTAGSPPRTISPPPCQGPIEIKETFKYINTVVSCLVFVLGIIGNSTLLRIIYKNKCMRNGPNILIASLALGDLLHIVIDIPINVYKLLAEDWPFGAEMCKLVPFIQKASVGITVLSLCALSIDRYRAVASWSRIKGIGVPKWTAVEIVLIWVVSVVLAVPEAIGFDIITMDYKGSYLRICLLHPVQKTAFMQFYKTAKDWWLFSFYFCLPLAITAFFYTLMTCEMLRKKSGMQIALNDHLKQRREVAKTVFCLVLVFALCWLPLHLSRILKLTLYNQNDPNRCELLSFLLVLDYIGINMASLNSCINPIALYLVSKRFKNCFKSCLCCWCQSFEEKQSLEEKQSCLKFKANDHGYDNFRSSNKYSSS
As to conditions: in man; Hypertension, 1999, 33, 581-585; cited from earlier work.

For a further experiment, the system named is ETA/B receptor. As to conditions: hypertensive patients; H. Krum et al., 1998; cited from earlier work.
For the next experiment, the target named is T2, dog ETA receptor (Canis lupus familiaris, UniProt Q5KSU9).
T2 construct: 100 μg of purified dog kidney homogenate is added; from tissue; host or cells: dog kidney homogenate
T2 sequence (Q5KSU9 21-426): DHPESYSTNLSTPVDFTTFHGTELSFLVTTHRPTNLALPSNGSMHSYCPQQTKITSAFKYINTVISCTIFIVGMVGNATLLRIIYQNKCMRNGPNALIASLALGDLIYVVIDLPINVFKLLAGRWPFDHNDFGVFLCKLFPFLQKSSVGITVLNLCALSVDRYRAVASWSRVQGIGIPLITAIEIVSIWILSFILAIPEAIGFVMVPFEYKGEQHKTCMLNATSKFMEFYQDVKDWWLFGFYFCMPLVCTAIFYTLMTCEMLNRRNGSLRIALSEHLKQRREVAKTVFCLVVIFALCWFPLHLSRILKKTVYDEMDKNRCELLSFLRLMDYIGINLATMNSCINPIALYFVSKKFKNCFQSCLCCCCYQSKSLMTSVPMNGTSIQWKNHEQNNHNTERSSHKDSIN
Put plainly: Dog ETA Binding Assay (125I-PD-151242, dog kidney homogenate). As to the method:
Competition between test substances and ligands binding to canine endothelin receptors is determined as follows: […] The solution is incubated at room temperature for 2 hours. After the incubation, the unbound ligand is separated from receptor bound ligand by filtration with a Brandel cell harvester, followed by 5 washes with buffer (Tris 50 mM, MgCl2 10 mM). Filter papers are counted for radioactivity and the Ki (an IC50 corrected for the dissociation constant and concentration of the ligand added) is determined for the concentration range tested.

In another experiment the target is T3, dog ETB (Canis lupus familiaris, UniProt P56497).
T3 construct: 50 μg of purified Dog cerebellum homogenate is added; from tissue; host or cells: dog cerebellum homogenate
T3 sequence (P56497 27-442): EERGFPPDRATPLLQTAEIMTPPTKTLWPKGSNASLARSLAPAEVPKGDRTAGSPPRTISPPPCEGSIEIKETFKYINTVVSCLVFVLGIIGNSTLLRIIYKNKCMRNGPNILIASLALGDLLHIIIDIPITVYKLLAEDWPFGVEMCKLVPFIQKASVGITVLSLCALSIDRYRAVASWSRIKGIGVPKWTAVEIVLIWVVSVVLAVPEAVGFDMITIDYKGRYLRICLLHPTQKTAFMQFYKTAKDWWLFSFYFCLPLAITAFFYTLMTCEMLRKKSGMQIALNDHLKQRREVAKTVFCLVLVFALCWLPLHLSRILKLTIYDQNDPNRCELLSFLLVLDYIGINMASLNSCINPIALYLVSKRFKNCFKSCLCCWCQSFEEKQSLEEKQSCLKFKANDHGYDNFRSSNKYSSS
Put plainly: Dog ETB Binding Assay (125I-IRL-1620, dog cerebellum homogenate). As to the method: Competition between test substances and ligands binding to canine endothelin receptors is determined as follows: […] The solution is incubated at 30° C. for 90 minutes. After the incubation, the unbound ligand is separated from receptor bound ligand by filtration with a Brandel cell harvester, followed by 5 washes with buffer (Tris 50 mM, MgCl2 10 mM). Filter papers are counted for radioactivity and the Ki (an IC50 corrected for the dissociation constant and concentration of the ligand added) is determined for the concentration range tested.

In another experiment the test system is neointimal formation. Particulars: S. Douglas et al., Circ. Res., 1994; cited from earlier work.

For the molecule `CCCC[C@@H](NC(=O)[C@@H](Cc1cn(C(=O)OC)c2ccccc12)NC(=O)[C@H](CC(C)(C)C)NC(=O)N1[C@H](C)CCC[C@@H]1C)C(=O)O` [BQ-788], at ETB receptors, the peripheral resistance entry is given as “increase peripheral resistance”. Regarding `COc1ccccc1Oc1c(NS(=O)(=O)c2ccc(C(C)(C)C)cc2)nc(-c2ncccn2)nc1OCCO` [Bosentan], the blood pressure entry with ETA/B receptor is reported as “decreased blood pressure”. One may read the Ki as the equilibrium dissociation constant of an inhibitor or competing ligand from its target. A lower Ki goes with a stronger hold on the target. Take `COc1ccccc1Oc1c(NS(=O)(=O)CCc2ccccc2)nc(-c2cccnn2)nc1OC` [Example 5]: the Ki was found to be 2 nM at dog ETA receptor and 132 nM on dog ETB. On to `CCCOc1ccc2c(c1)[C@@H](c1ccc(OC)cc1OCC(=O)O)[C@H](C(=O)O)[C@H]2c1ccc2c(c1)OCO2` [SB-209670], for which, in the experiment on neointimal formation, the “reduction in neointimal formation relative to control animals” value is recorded as 50%.
